Data as given in patent US6525001B1, “Substituted pyrimidine and pyridine herbicides” (Mid-American Commercialization Corporation, priority 1997, dated 2003).

How the values were obtained:
Type in all cases: in vivo
[1] = test system: redroot pigweed (Amaranthus retroflexus); assay: Test C; design: key: 0 was no effect; 100 was complete control
[2] = test system: wild poinsettia (Euphorbia heterophylla); assay: Test C; design: key: 0 was no effect; 100 was complete control
[3] = test system: arrowleaf sida (Sida rhombifolia); assay: Test C
[4] = test system: cotton (Gossypium hirsutum); assay: Test C
[5] = test system: hairy beggarticks (Bidens pilosa); assay: Test C
[6] = test system: barnyardgrass (Echinochloa crus-galli); assay: Test C
[7] = test system: cocklebur (Xanthium strumarium); assay: Test C; design: key: 0 was no effect; 100 was complete control
[8] = test system: ivyleaf morningglory (Ipomoea hederacea); assay: Test C; design: key: 0 was no effect; 100 was complete control
[9] = test system: eastern black nightshade (Solanum ptycanthum); assay: Test C; design: key: 0 was no effect; 100 was complete control
[10] = test system: large crabgrass (Digitaria sanguinalis); assay: Test E pre-/postemergence/post directed
Method in brief: (§1)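 Greenhouse pot-grown plants; compound in non-phytotoxic solvent with surfactant applied preemergence to soil within one day of planting, postemergence at two to four leaf stage (three to twenty cm), or post-directed to plant base and soil. Visual injury rated 13 to 21 days after application, 0 (none) to 100 (complete control).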

[11] = test system: surinam grass (Brachiaria decumbens); assay: Test E pre-/postemergence/post directed
Method in brief: as §1

[12] = test system: alexandergrass (Brachiaria plantaginea); assay: Test E pre-/postemergence/post directed
Method in brief: as §1

[13] = test system: itchgrass (Rottboellia exaltata); assay: Test E pre-/postemergence/post directed
Method in brief: as §1

[14] = test system: bermudagrass (Cynodon dactylon); assay: Test E pre-/postemergence/post directed
Method in brief: as §1

[15] = test system: sandbur (Cenchrus echinatus); assay: Test E pre-/postemergence/post directed; settings: PREEMERGENCE
Method in brief: as §1

[16] = test system: Spanishneedles (Bidens bipinnata); assay: Test E pre-/postemergence/post directed
Method in brief: as §1

[17] = test system: johnson grass (Sorghum halepense); assay: Test E pre-/postemergence/post directed
Method in brief: as §1

[18] = test system: common ragweed (Ambrosia elatior); assay: Test E pre-/postemergence/post directed
Method in brief: as §1

[19] = test system: velvetleaf (Abutilon theophrasti); assay: Test C; design: key: 0 was no effect; 100 was complete control
[20] = test system: giant foxtail (Setaria faberii); assay: Test C; design: key: 0 was no effect; 100 was complete control
[21] = test system: large crabgrass (Digitaria sanguinalis); assay: Test C; design: key: 0 was no effect; 100 was complete control

Cc1cnc(-c2ccc(C(F)(F)F)cc2)nc1Cn1ccc(C(F)(F)F)n1 [compound 9]
Plant response rating, Redroot pigweed ([1]; POSTEMERGENCE, Rate 35 g/ha): 60 | Plant response rating, Redroot pigweed ([1]; POSTEMERGENCE, Rate 70 g/ha): 70 | Plant response rating, Redroot pigweed ([1]; PREEMERGENCE, Rate 35 g/ha): 100 | Plant response rating, Redroot pigweed ([1]; PREEMERGENCE, Rate 70 g/ha): 100 | Plant response rating, Redroot pigweed ([1]; PREEMERGENCE, Rate 140 g/ha): 100 | Plant response rating, Wild poinsettia ([2]; POSTEMERGENCE, Rate 35 g/ha): 90 | Plant response rating, Wild poinsettia ([2]; POSTEMERGENCE, Rate 70 g/ha): 90 | Plant response rating, Wild poinsettia ([2]; POSTEMERGENCE, Rate 140 g/ha): 100 | Plant response rating, Wild poinsettia ([2]; PREEMERGENCE, Rate 35 g/ha): 10 | Plant response rating, Wild poinsettia ([2]; PREEMERGENCE, Rate 70 g/ha): 50 | Plant response rating, Wild poinsettia ([2]; PREEMERGENCE, Rate 140 g/ha): 50 | Plant response rating, Arrowleaf sida ([3]; POSTEMERGENCE, Rate 35 g/ha): 80 | Plant response rating, Arrowleaf sida ([3]; POSTEMERGENCE, Rate 70 g/ha): 90 | Plant response rating, Arrowleaf sida ([3]; POSTEMERGENCE, Rate 140 g/ha): 90 | Plant response rating, Arrowleaf sida ([3]; PREEMERGENCE, Rate 35 g/ha): 90 | Plant response rating, Arrowleaf sida ([3]; PREEMERGENCE, Rate 70 g/ha): 95 | Plant response rating, Arrowleaf sida ([3]; PREEMERGENCE, Rate 140 g/ha): 95 | Plant response rating, Cotton ([4]; POSTEMERGENCE, Rate 35 g/ha): 70 | Plant response rating, Cotton ([4]; POSTEMERGENCE, Rate 70 g/ha): 80 | Plant response rating, Cotton ([4]; POSTEMERGENCE, Rate 140 g/ha): 90 | Plant response rating, Cotton ([4]; PREEMERGENCE, Rate 35 g/ha): 10 | Plant response rating, Cotton ([4]; PREEMERGENCE, Rate 70 g/ha): 35 | Plant response rating, Cotton ([4]; PREEMERGENCE, Rate 140 g/ha): 50 | Plant response rating, H. beggarticks ([5]; POSTEMERGENCE, Rate 35 g/ha): 65 | Plant response rating, H. beggarticks ([5]; POSTEMERGENCE, Rate 70 g/ha): 70 | Plant response rating, H. beggarticks ([5]; POSTEMERGENCE, Rate 140 g/ha): 80 | Plant response rating, H. beggarticks ([5]; PREEMERGENCE, Rate 35 g/ha): 85 | Plant response rating, H. beggarticks ([5]; PREEMERGENCE, Rate 70 g/ha): 85 | Plant response rating, H. beggarticks ([5]; PREEMERGENCE, Rate 140 g/ha): 85 | Plant response rating, Barnyardgrass ([6]; POSTEMERGENCE, Rate 35 g/ha): 10 | Plant response rating, Barnyardgrass ([6]; POSTEMERGENCE, Rate 70 g/ha): 25 | Plant response rating, Barnyardgrass ([6]; POSTEMERGENCE, Rate 140 g/ha): 25 | Plant response rating, Barnyardgrass ([6]; PREEMERGENCE, Rate 35 g/ha): 10 | Plant response rating, Barnyardgrass ([6]; PREEMERGENCE, Rate 70 g/ha): 50 | Plant response rating, Barnyardgrass ([6]; PREEMERGENCE, Rate 140 g/ha): 50 | Plant response rating, Cocklebur ([7]; POSTEMERGENCE, Rate 35 g/ha): 60 | Plant response rating, Cocklebur ([7]; POSTEMERGENCE, Rate 70 g/ha): 80 | Plant response rating, Cocklebur ([7]; POSTEMERGENCE, Rate 140 g/ha): 80 | Plant response rating, Cocklebur ([7]; PREEMERGENCE, Rate 35 g/ha): 0 | Plant response rating, Cocklebur ([7]; PREEMERGENCE, Rate 70 g/ha): 0 | Plant response rating, Cocklebur ([7]; PREEMERGENCE, Rate 140 g/ha): 0 | Plant response rating, I. morningglory ([8]; POSTEMERGENCE, Rate 35 g/ha): 50 | Plant response rating, I. morningglory ([8]; POSTEMERGENCE, Rate 70 g/ha): 60 | Plant response rating, I. morningglory ([8]; POSTEMERGENCE, Rate 140 g/ha): 100 | Plant response rating, I. morningglory ([8]; PREEMERGENCE, Rate 35 g/ha): 20 | Plant response rating, I. morningglory ([8]; PREEMERGENCE, Rate 70 g/ha): 50 | Plant response rating, I. morningglory ([8]; PREEMERGENCE, Rate 140 g/ha): 50 | Plant response rating, E. blacknightsh ([9]; POSTEMERGENCE, Rate 35 g/ha): 100 | Plant response rating, E. blacknightsh ([9]; POSTEMERGENCE, Rate 140 g/ha): 100 | Plant response rating, E. blacknightsh ([9]; PREEMERGENCE, Rate 35 g/ha): 95 | Plant response rating, E. blacknightsh ([9]; PREEMERGENCE, Rate 70 g/ha): 100 | Plant response rating, E. blacknightsh ([9]; PREEMERGENCE, Rate 140 g/ha): 95 | Plant response rating, Large crabgrass ([10]; POSTEMERGENCE, Rate 125 g/ha): 5 | Plant response rating, Large crabgrass ([10]; POSTEMERGENCE, Rate 250 g/ha): 10 | Plant response rating, Large crabgrass ([10]; PREEMERGENCE, Rate 32 g/ha): 70 | Plant response rating, Surinam grass ([11]; POSTEMERGENCE, Rate 125 g/ha): 10 | Plant response rating, Surinam grass ([11]; POSTEMERGENCE, Rate 250 g/ha): 10 | Plant response rating, Surinam grass ([11]; PREEMERGENCE, Rate 64 g/ha): 10 | Plant response rating, Surinam grass ([11]; PREEMERGENCE, Rate 125 g/ha): 20 | Plant response rating, Alexandergrass ([12]; POSTEMERGENCE, Rate 125 g/ha): 10 | Plant response rating, Alexandergrass ([12]; POSTEMERGENCE, Rate 250 g/ha): 10 | Plant response rating, Alexandergrass ([12]; PREEMERGENCE, Rate 32 g/ha): 30 | Plant response rating, Alexandergrass ([12]; PREEMERGENCE, Rate 64 g/ha): 65 | Plant response rating, Alexandergrass ([12]; PREEMERGENCE, Rate 125 g/ha): 65 | Plant response rating, Itchgrass ([13]; POSTEMERGENCE, Rate 125 g/ha): 30 | Plant response rating, Itchgrass ([13]; POSTEMERGENCE, Rate 250 g/ha): 30 | Plant response rating, Itchgrass ([13]; PREEMERGENCE, Rate 64 g/ha): 85 | Plant response rating, Bermudagrass ([14]; POSTEMERGENCE, Rate 125 g/ha): 10 | Plant response rating, Bermudagrass ([14]; POSTEMERGENCE, Rate 250 g/ha): 10 | Plant response rating, Bermudagrass ([14]; PREEMERGENCE, Rate 32 g/ha): 70 | Plant response rating, Bermudagrass ([14]; PREEMERGENCE, Rate 64 g/ha): 98 | Plant response rating, Sandbur ([15]; Rate 125 g/ha): 10 | Plant response rating, Sandbur ([15]; Rate 250 g/ha): 20 | Plant response rating, Spanishneedles ([16]; POSTEMERGENCE, Rate 125 g/ha): 10 | Plant response rating, Spanishneedles ([16]; POSTEMERGENCE, Rate 250 g/ha): 15 | Plant response rating, Spanishneedles ([16]; PREEMERGENCE, Rate 64 g/ha): 20 | Plant response rating, Spanishneedles ([16]; PREEMERGENCE, Rate 125 g/ha): 30 | Plant response rating, Spanishneedles ([16]; PREEMERGENCE, Rate 250 g/ha): 60 | Plant response rating, Johnsongrass ([17]; POSTEMERGENCE, Rate 125 g/ha): 85 | Plant response rating, Johnsongrass ([17]; POSTEMERGENCE, Rate 250 g/ha): 85 | Plant response rating, Johnsongrass ([17]; PREEMERGENCE, Rate 32 g/ha): 55 | Plant response rating, Johnsongrass ([17]; PREEMERGENCE, Rate 64 g/ha): 75 | Plant response rating, Johnsongrass ([17]; PREEMERGENCE, Rate 125 g/ha): 85 | Plant response rating, Johnsongrass ([17]; PREEMERGENCE, Rate 250 g/ha): 90 | Plant response rating, Com. ragweed ([18]; POSTEMERGENCE, Rate 125 g/ha): 10 | Plant response rating, Com. ragweed ([18]; POSTEMERGENCE, Rate 250 g/ha): 10 | Plant response rating, Com. ragweed ([18]; PREEMERGENCE, Rate 32 g/ha): 10 | Plant response rating, Com. ragweed ([18]; PREEMERGENCE, Rate 125 g/ha): 98 | Plant response rating, Velvetleaf ([19]; POSTEMERGENCE, Rate 35 g/ha): 10 | Plant response rating, Velvetleaf ([19]; POSTEMERGENCE, Rate 70 g/ha): 70 | Plant response rating, Velvetleaf ([19]; POSTEMERGENCE, Rate 140 g/ha): 90 | Plant response rating, Velvetleaf ([19]; PREEMERGENCE, Rate 35 g/ha): 75 | Plant response rating, Velvetleaf ([19]; PREEMERGENCE, Rate 70 g/ha): 95 | Plant response rating, Velvetleaf ([19]; PREEMERGENCE, Rate 140 g/ha): 100 | Plant response rating, Giant foxtail ([20]; POSTEMERGENCE, Rate 35 g/ha): 15 | Plant response rating, Giant foxtail ([20]; POSTEMERGENCE, Rate 70 g/ha): 15 | Plant response rating, Giant foxtail ([20]; POSTEMERGENCE, Rate 140 g/ha): 30 | Plant response rating, Giant foxtail ([20]; PREEMERGENCE, Rate 35 g/ha): 90 | Plant response rating, Giant foxtail ([20]; PREEMERGENCE, Rate 70 g/ha): 100 | Plant response rating, Giant foxtail ([20]; PREEMERGENCE, Rate 140 g/ha): 100 | Plant response rating, Large crabgrass ([21]; POSTEMERGENCE, Rate 35 g/ha): 20 | Plant response rating, Large crabgrass ([21]; POSTEMERGENCE, Rate 70 g/ha): 40 | Plant response rating, Large crabgrass ([21]; POSTEMERGENCE, Rate 140 g/ha): 50 | Plant response rating, Large crabgrass ([21]; PREEMERGENCE, Rate 35 g/ha): 95 | Plant response rating, Large crabgrass ([21]; PREEMERGENCE, Rate 70 g/ha): 100 | Plant response rating, Large crabgrass ([21]; PREEMERGENCE, Rate 140 g/ha): 100
